Source: PMC11020070, “Discovery of Protease-Activated Receptor 4 (PAR4)-Tethered Ligand Antagonists Using Ultralarge Virtual Screening” (ACS Pharmacology & Translational Science, 2024)

Assays:
[1] = target: T1, PAR4 (Homo sapiens, UniProt Q96RI0); assay: PAR4 component of α-thrombin activation (α-thrombin + vorapaxar) in human platelets; type: cell-based; design: endogenous in cells; host or cells: platelets; details: for IC50: α-thrombin + vorapaxar, read-out: PAR4 IC50 (Figure 6D)
T1 sequence (Q96RI0 18-385): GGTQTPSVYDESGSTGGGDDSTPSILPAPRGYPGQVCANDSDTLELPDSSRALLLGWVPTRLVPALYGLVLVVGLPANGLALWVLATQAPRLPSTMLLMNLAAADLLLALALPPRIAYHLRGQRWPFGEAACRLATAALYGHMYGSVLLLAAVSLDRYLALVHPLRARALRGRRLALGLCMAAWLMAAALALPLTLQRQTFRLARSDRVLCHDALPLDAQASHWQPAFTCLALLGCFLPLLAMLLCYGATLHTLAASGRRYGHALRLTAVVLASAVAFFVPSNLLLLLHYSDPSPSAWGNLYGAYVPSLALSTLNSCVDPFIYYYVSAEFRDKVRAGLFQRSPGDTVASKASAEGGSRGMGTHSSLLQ
Procedure: Figure 5 (A) Off-target controls: % of vehicle control for γ-thrombin (100 nM), PAR4 component of α-thrombin (5 nM α-thrombin +1 μM vorapaxar), PAR4 agonist peptide 200 μM AYPGKF, 200 μM PAR1 agonist peptide SFLLRN, and GPVI agonist convulxin 3.16 nM.
Figure 6 (A) Distribution of IC50 values for the inhibition of human PAR4 vs mouse PAR4. Red indicates the 2 compounds highlighted in panels (B–D). (B) Structures of exemplar compounds. (C) Concentration–response curves for human vs mouse PAR4. (D) Concentration–response curves for the inhibition of pharmacologically defined α-thrombin components for PAR1 (α-thrombin + BMS-3) vs PAR4 (α-thrombin + vorapaxar).
α-thrombin activates both PAR1 and PAR4, and the individual PAR1 or PAR4 component can be isolated pharmacologically. […] With 20 substitutions between PAR1 and PAR4 within 5 Å of the predicted 31 binding site, the basis for these selectivity differences is not known (Figure S4). As we continue to probe for a selective PAR4 antagonist, mutagenesis of individual residues will be conducted.
Compounds were screened for inhibition activity against human PAR4 using 100 nM γ-thrombin or 200 μM PAR4-AP in a single-point assay (10 μM test compound). Dose–response curves were conducted for active compounds. Active compounds were also assessed at a single concentration of 10 μM against other agonists, including the PAR4 component of α-thrombin (5 nM α-thrombin +1 μM vorapaxar), the PAR1 agonist peptide (20 μM SFFLRN), and the GPVI receptor agonist convulxin (3 nM).

[2] = target: T1, PAR4; assay: Human platelet activity assay, flow cytometry, γ-thrombin activation; type: cell-based; design: endogenous in cells; host or cells: washed human platelets from healthy volunteers
Procedure: To test the antagonistic effect of the compounds on PAR4, a flow cytometry assay of human platelets was employed. Each compound was screened at 10 μM in human platelets using flow cytometry for GPIIbIIIa activation (PAC1) and P-selectin (CD62p) expression as previously described.[4] Activation of GPIIbIIIa allows interaction with divalent fibrinogen or multivalent von Willebrand factor, leading to platelet aggregation.[41] PAR4 stimulation also triggers α-granule secretion containing P-selectin.[5] […] Platelets were treated with each test compound or vehicle control DMSO before activating with γ-thrombin (100 nM) or PAR4 agonist peptide mimetic (200 μM, “PAR4-AP” AYPGKF) for 30 min. γ-thrombin activates PAR4 but not PAR1.[42]
Activation of washed human platelets was monitored by flow cytometry for the detection of PAC1 (GPIIbIIIa activation) and CD62p (P-selectin expression) binding as previously described.[4] Human platelets were obtained from healthy volunteers. The Vanderbilt University Internal Review Board approved these studies. Informed consent was obtained from all individuals prior to the blood draw. 10 mL of whole blood was collected into 0.32% Na citrate. Platelet-rich plasma was collected after room-temperature centrifugation at 1100 rpm for 15 min on a Thermo Forma 400 centrifuge (Thermo Fisher, Waltham, MA). 1/10 volume of acid citrate dextrose (ACD) buffer was added to the collected supernatant and incubated for 10 min. After centrifugation at 2400 rpm for 10 min, the platelet pellet was resuspended in 1 mL Tyrode’s buffer (“TBB”: 15 mM HEPES, 0.33 mM NaH2PO4, pH 6.4, 138 mM NaCl, 2.7 mM KCl, 1 mM MgCl2, 5.5 mM dextrose, 0.1% bovine serum albumin). Platelets were collected, counted on a Z1 Coulter Particle Counter (Beckman Coulter, Brea, CA), and diluted in TBB to 1.5 × 10^7 platelets/mL. 60 uL of platelets were aliquoted to each tube and preincubated with 40 μL of TBB with antibodies PAC1 FITC (Becton Dickinson, Franklin Lakes NJ) and P-selectin PE (Becton Dickinson) and either test compound antagonist or DMSO vehicle control for 20 min. Platelets were then activated with 100 nM γ-thrombin or other agonists for 30 min. Samples were then fixed by adding 100 μL of 2% paraformaldehyde. After 30 min, samples were diluted by adding 300 μL of phosphate-buffered saline (PBS) and stored at 4C. Data were collected on a three-laser BD LSRFortessa (Becton Dickinson) and analyzed with FlowJo software (FlowJo LLC, Ashland, OR). The mean fluorescence intensity (geometric) of PE and FITC was determined from 30,000 events after compensation correction. Data were normalized to vehicle (DMSO) controls.
Compounds were screened for inhibition activity against human PAR4 using 100 nM γ-thrombin or 200 μM PAR4-AP in a single-point assay (10 μM test compound).

[3] = human platelets, 100 nM γ-thrombin, GPIIbIIIa activation (PAC1), read-out: Human Platelets PAC1 IC50
[4] = human platelets, 100 nM γ-thrombin, P-selectin (CD62p), read-out: Human Platelets P-Sel IC50
[5] = Table 4 summary, read-out: human PAR4 IC50

IC50 [2, 3] [nM]	IC50 [2, 4] [nM]	IC50 [2, 5] [nM]	IC50 [1] [nM]	Compound	inhibition of PAR4 component of α-thrombin activation ([1]; 10 μM compound, 5 nM α-thrombin + 1 μM vorapaxar)	inhibition at 10 µM ([2]; 10 μM compound, 100 nM γ-thrombin, human platelets, read-out: inhibition of platelet activation against γ-thrombin) [%]	IC50 ([2]; γ-thrombin activation of PAR4, human platelets, read-out: IC50, concentration-response curve (CRC)) [nM]
117	135		163	O=C(Nc1n[nH]c(-c2ccc(F)cc2F)n1)c1nn(-c2ccccc2)c2c1CCCC2 [Compound 31]			
120	178	120		COc1cccc(-c2nc(NC(=O)c3nn(-c4ccccc4)c4c3CCCC4)n[nH]2)c1 [Compound 32]			

Further lines, the molecule ahead of its results:

Compound	IC50 [2, 3] [nM]	IC50 [2, 4] [nM]	IC50 [2, 5] [nM]	IC50 [1] [nM]	inhibition of PAR4 component of α-thrombin activation ([1]; 10 μM compound, 5 nM α-thrombin + 1 μM vorapaxar)	inhibition at 10 µM ([2]; 10 μM compound, 100 nM γ-thrombin, human platelets, read-out: inhibition of platelet activation against γ-thrombin) [%]	IC50 ([2]; γ-thrombin activation of PAR4, human platelets, read-out: IC50, concentration-response curve (CRC)) [nM]
Cc1nc(NC(=O)c2cc(-c3ccccc3)n(-c3ccccc3)n2)n[nH]1 [Compound 7]	2280	2730			did inhibit	~50	2300
Cc1cc(C(=O)Nc2n[nH]c(OC(F)F)n2)nn1-c1ccccc1 [Compound 9]	583	629	583				
Cn1nc(C(=O)Nc2n[nH]c(-c3c(F)cccc3F)n2)cc1C1CC1 [Compound 12]	134	150	134	149			
O=C(Nc1nc[nH]n1)c1nn(-c2ccccc2)c2c1CCC2 [Compound 17]	502	599	502				
